Assay results as given in ChEMBL document CHEMBL1141370, “Biologically active triterpenoid saponins from Ardisia japonica” (J Nat Prod, 2007).

What was measured:
Type in all cases: cell-based
[1] = Cytotoxicity against human KATO3 cell line by MTT assay
HL-60 = test: Cytotoxicity against human HL60 cell line by MTT assay
A549 = test: Cytotoxicity against human A549 cell line by MTT assay

Which results are given for `C[C@@H]1O[C@@H](O[C@H]2[C@H](O[C@H]3CO[C@@H](O[C@H]4CC[C@]5(C)[C@H]6CC[C@]78OC[C@@]9(CCC(C)(C)C[C@H]97)[C@H](O)C[C@@]8(C)[C@]6(C)CC[C@H]5C4(C)C)[C@H](O)[C@H]3O)O[C@H](CO)[C@@H](O)[C@@H]2O)[C@H](O)[C@H](O)[C@H]1O` [ARDISIANOSIDE C]?
IC50 [1]: 1.3 µM; IC50 (HL-60): 2.7 µM; IC50 (A549): 3.2 µM

With `CC1(C)CC[C@]23CO[C@@]4(CC[C@@H]5[C@@]6(C)CC[C@H](O[C@@H]7OC[C@H](O[C@@H]8O[C@H](CO)[C@@H](O)[C@H](O)[C@H]8O[C@@H]8OC[C@@H](O)[C@H](O)[C@H]8O)[C@H](O)[C@H]7O)C(C)(C)[C@@H]6CC[C@@]5(C)[C@]4(C)C[C@H]2O)[C@@H]3C1` [ARDISIANOSIDE D] as the compound, how does the IC50 [1] read?
The IC50 was 1.5 µM.

What about the IC50 (HL-60) of the same compound?
The IC50 was 3.5 µM.

What about the IC50 (A549) of the same compound?
The IC50 was 24.2 µM.

Which results are given for `C[C@@H]1O[C@@H](O[C@H]2[C@H](O[C@H]3CO[C@@H](O[C@H]4CC[C@]5(C)[C@H]6CC[C@]78OC[C@@]9(CC[C@](C)(C(=O)O)C[C@H]97)[C@H](O)C[C@@]8(C)[C@]6(C)CC[C@H]5C4(C)C)[C@H](O[C@@H]4O[C@H](CO)[C@@H](O)[C@H](O)[C@H]4O)[C@H]3O)O[C@H](CO)[C@@H](O)[C@@H]2O)[C@H](O)[C@H](O)[C@H]1O` [ARDISIAMAMILLOSIDE F]?
IC50 [1]: > 100 µM; IC50 (HL-60): > 100 µM; IC50 (A549): > 100 µM

Which IC50 [1] does the source give for `CC1(C)[C@@H](O[C@@H]2OC[C@H](O[C@@H]3O[C@H](CO)[C@@H](O)[C@H](O)[C@H]3O)[C@H](O)[C@H]2O[C@@H]2O[C@H](CO)[C@@H](O)[C@H](O)[C@H]2O)CC[C@]2(C)[C@H]3CC[C@]45OC[C@@]6(CC[C@](C)(CO)C[C@H]64)[C@H](O)C[C@@]5(C)[C@]3(C)CC[C@@H]12` [ARDISIANOSIDE E] here?
The IC50 was 0.4 µM.

And the IC50 (HL-60)?
Its IC50 is 3.4 µM.

What about the IC50 (A549) of the same compound?
The IC50 was 3.1 µM.

Which IC50 [1] does the source give for `CC1(C)[C@@H](O[C@@H]2OC[C@H](O[C@@H]3O[C@H](CO)[C@@H](O)[C@H](O[C@@H]4O[C@H](CO)[C@@H](O)[C@H](O)[C@H]4O)[C@H]3O[C@@H]3OC[C@@H](O)[C@H](O)[C@H]3O)[C@H](O)[C@H]2O[C@@H]2O[C@H](CO)[C@@H](O)[C@H](O)[C@H]2O)CC[C@]2(C)[C@H]3CC[C@]45OC[C@@]6(CC[C@](C)(C=O)C[C@H]64)[C@H](O)C[C@@]5(C)[C@]3(C)CC[C@@H]12` [CYCLAMIN] here?
Its IC50 is 0.3 µM.

What about the IC50 (HL-60) of the same compound?
The IC50 was 3 µM.

What about the IC50 (A549) of the same compound?
Its IC50 is 3.3 µM.

For `C[C@@H]1O[C@@H](O[C@H]2[C@H](O[C@H]3CO[C@@H](O[C@H]4CC[C@]5(C)[C@H]6CC[C@]78OC[C@@]9(CC[C@](C)(C=O)C[C@H]97)[C@H](O)C[C@@]8(C)[C@]6(C)CC[C@H]5C4(C)C)[C@H](O)[C@H]3O)O[C@H](CO)[C@@H](O)[C@@H]2O)[C@H](O)[C@H](O)[C@H]1O` [CYCLAMIRETIN A], which IC50 [1] is on record?
Its IC50 is 1.7 µM.

And the IC50 (HL-60)?
Its IC50 is 18.1 µM.

And the IC50 (A549)?
The IC50 was 29.2 µM.

With `C[C@@H]1O[C@@H](O[C@H]2[C@H](O[C@H]3CO[C@@H](O[C@H]4CC[C@]5(C)[C@H]6CC[C@]78OC(=O)[C@@]9(CC[C@](C)(C=O)C[C@H]97)[C@H](O)C[C@@]8(C)[C@]6(C)CC[C@H]5C4(C)C)[C@H](O[C@@H]4O[C@H](CO)[C@@H](O)[C@H](O)[C@H]4O)[C@H]3O)O[C@H](CO)[C@@H](O)[C@@H]2O)[C@H](O)[C@H](O)[C@H]1O` [ARDISIANOSIDE J] as the compound, how does the IC50 [1] read?
Its IC50 is 33.5 µM.

What about the IC50 (HL-60) of the same compound?
The IC50 was 45.6 µM.

What about the IC50 (A549) of the same compound?
Its IC50 is 32.9 µM.

Which results are given for `CC1(C)[C@@H](O[C@@H]2OC[C@H](O[C@@H]3O[C@H](CO)[C@@H](O)[C@H](O)[C@H]3O[C@@H]3OC[C@@H](O)[C@H](O)[C@H]3O)[C@H](O)[C@H]2O)CC[C@]2(C)[C@H]3CC[C@]45OC[C@@]6(CC[C@](C)(C=O)C[C@H]64)[C@H](O)C[C@@]5(C)[C@]3(C)CC[C@@H]12` [PRIMULANIN]?
IC50 [1]: 3.3 µM; IC50 (HL-60): 24.7 µM; IC50 (A549): 27.7 µM

Which IC50 [1] does the source give for `COc1cc([C@@H]2c3cc4c(cc3[C@@H](O[C@@H]3O[C@@H]5CO[C@@H](C)O[C@H]5[C@H](O)[C@H]3O)[C@H]3COC(=O)[C@H]23)OCO4)cc(OC)c1O` [ETOPOSIDE] here?
Its IC50 is 0.1 µM.

And the IC50 (HL-60)?
The IC50 was 0.3 µM.

What about the IC50 (A549) of the same compound?
Its IC50 is 20.9 µM.

Which IC50 [1] does the source give for `C[C@@H]1O[C@@H](O[C@H]2[C@H](O[C@H]3CO[C@@H](O[C@H]4CC[C@]5(C)[C@H]6CC[C@]78OC[C@@]9(CC[C@](C)(C=O)C[C@H]97)[C@H](O)C[C@@]8(C)[C@]6(C)CC[C@H]5C4(C)C)[C@H](O[C@@H]4O[C@H](CO)[C@@H](O)[C@H](O)[C@H]4O)[C@H]3O)O[C@H](CO)[C@@H](O)[C@@H]2O)[C@H](O)[C@H](O)[C@H]1O` [ARDISIACRISPIN B] here?
The IC50 was 1.2 µM.

What about the IC50 (HL-60) of the same compound?
Its IC50 is 3.2 µM.

And the IC50 (A549)?
The IC50 was 3.6 µM.

Which results are given for `C[C@@H]1O[C@@H](O[C@H]2[C@H](O[C@H]3CO[C@@H](O[C@H]4CC[C@]5(C)[C@H]6CC[C@]78OC[C@@]9(CC[C@](C)(O)C[C@H]97)[C@H](O)C[C@@]8(C)[C@]6(C)CC[C@H]5C4(C)C)[C@H](O[C@@H]4O[C@H](CO)[C@@H](O)[C@H](O)[C@H]4O)[C@H]3O)O[C@H](CO)[C@@H](O)[C@@H]2O)[C@H](O)[C@H](O)[C@H]1O` [ARDISIANOSIDE G]?
IC50 [1]: > 100 µM; IC50 (HL-60): > 100 µM; IC50 (A549): > 100 µM

Which results are given for `C[C@@H]1O[C@@H](O[C@H]2[C@H](O[C@H]3CO[C@@H](O[C@H]4CC[C@]5(C)[C@H]6CC[C@]78OC[C@@]9(CC[C@](C)(C=O)C[C@H]97)C(=O)C[C@@]8(C)[C@]6(C)CC[C@H]5C4(C)C)[C@H](O)[C@H]3O)O[C@H](CO)[C@@H](O)[C@@H]2O)[C@H](O)[C@H](O)[C@H]1O` [ARDISIAMAMILLOSIDE H]?
IC50 [1]: 21.5 µM; IC50 (HL-60): 30.8 µM; IC50 (A549): 37.2 µM

For `C[C@@H]1O[C@@H](O[C@H]2[C@H](O[C@H]3CO[C@@H](O[C@H]4CC[C@]5(C)[C@H]6CC[C@]78OC[C@@]9(CC[C@](C)(CO)C[C@H]97)[C@H](O)C[C@@]8(C)[C@]6(C)CC[C@H]5C4(C)C)[C@H](O[C@@H]4O[C@H](CO)[C@@H](O)[C@H](O)[C@H]4O)[C@H]3O)O[C@H](CO)[C@@H](O)[C@@H]2O)[C@H](O)[C@H](O)[C@H]1O` [ARDISICRENOSIDE A], which IC50 [1] is on record?
Its IC50 is 14.5 µM.

What about the IC50 (HL-60) of the same compound?
The IC50 was over 100 µM.

What about the IC50 (A549) of the same compound?
Its IC50 is over 100 µM.

What does the source list for `C[C@@H]1O[C@@H](O[C@H]2[C@H](O[C@H]3CO[C@@H](O[C@H]4CC[C@]5(C)[C@H]6CC=C7[C@@H]8C[C@@](C)(CO)CC[C@]8(CO)[C@@H]8O[C@@H]8[C@@]7(C)[C@]6(C)CC[C@H]5C4(C)C)[C@H](O[C@@H]4O[C@H](CO)[C@@H](O)[C@H](O)[C@H]4O)[C@H]3O)O[C@H](CO)[C@@H](O)[C@@H]2O)[C@H](O)[C@H](O)[C@H]1O` [ARDISIANOSIDE K]?
IC50 [1]: > 100 µM; IC50 (HL-60): > 100 µM; IC50 (A549): > 100 µM
